Patent US20120190613A1, “ECHINOCANDIN DERIVATIVES” (priority 2009, published 2012)
Converted amounts (≈) assume the structure as drawn. Read-outs that look alike come from different tables or passages of the source. Marks after values point to notes of the source that are not given here. Starred links: 1 amine or outer side, 2 acyl side, 3 side chain; linkers in the order of their positions; H or OH if unused. Positions of bridges follow the written chain, without caps; N, C: chain ends. Non-standard residues stand in square brackets, D forms with d. Residues, ends and D or L forms follow the SMILES beside them. *: point of attachment. pTerphenylCO(4''-OnC5H11) = CCCCCOc1ccc(-c2ccc(-c3ccc(C(=O)*)cc3)cc2)cc1; Orn(4R-OH,5R-OH) = O=C([C@H](C[C@@H](O)[C@@H](O)N[*:3])N[*:1])[*:2]; hTyr(3S-OH,4S-OH) = N[C@H](C(=O)O)[C@H](O)[C@@H](O)c1ccc(O)cc1; Pro(3S-OH,4S-Me) = C[C@H]1CN[C@H](C(=O)O)[C@H]1O; Hyp = O=C(O)[C@@H]1C[C@@H](O)CN1

Key:
A. flavus 626 ATCC 64025 = experiment: MIC by broth microdilution against A. flavus; assay type: cell-based; conditions: growth reduction of 50%
Experimental: (§1) MIC values (μg/mL) of echinocandin class compounds of the invention against various Candida and Aspergillus species were obtained as follows. Test organisms were obtained from the American Type Culture Collection (Manassas, Va.). The isolates were maintained at −80 ° C., then thawed and sub-cultured one day prior to testing (seven days for Aspergillus strains).
(§2) The mouse serum was heat-inactivated for 30 minutes at 56° C., and filtered through a 0.2 μm low protein binding filter unit prior to use.
(§3) MIC values were determined using broth microdilution. The wells of the daughter plates ultimately contained 180 μL of RPMI-1640 medium with and without mouse serum, 10 μL of drug solution, and 10 μL of yeast or fungal inoculum.
(§4) Prior to susceptibility testing, fungal isolates were removed from frozen storage, thawed at room temperature, and subcultured to Potato Dextrose Agar. The Candida strains were incubated overnight at 35° C. and the Aspergillus strains for 7 days at 25° C. Yeast colonies were inoculated into sterile saline and adjusted to the turbidity of a 0.5 McFarland standard. Inoculums from Aspergillus strains were prepared by washing the surface of an agar slant with 1 mL of sterile saline containing 0.05% of Tween 20. The resulting colloidial suspensions were adjusted to an optical density of 0.09 to 0.11 at λ 625 nm.
(§5) Both the yeast and filamentous fungus suspensions were further diluted 1:100 in RPMI-1640 medium and dispensed into sterile reservoirs and used to inoculate the daughter plates. 10 μL of standardized inoculum was delivered into each well. This yielded a final cell concentration in the daughter plates of approximately 2.5×10^3 colony-forming units/mL. Plates were incubated at 35° C. for approximately 48 hr.
(§6) Following incubation, microplates were viewed from the bottom using a plate viewer.

[1] = system: C. parapsilosis 630 ATCC 90018; experiment: MIC by broth microdilution against C. parapsilosis; assay type: cell-based
Experimental: as §1, §2, §3, §4, §5, §6

C. albicans R303 = experiment: Mouse candidiasis infection model, C. albicans density in kidneys; assay type: in vivo, female CD-1 mice; conditions: for Difference from 24-hr control / Mean log10 CFU/kidneys (±SD) / Mean log10 CFU/kidneys (±SEM) / Difference from 24-h control: kidneys at 24 hr
Experimental: The objective of these studies was to evaluate the efficacy of test compounds in the mouse candidiasis infection model.
The strain, C. albicans R303 was transferred from frozen storage onto Sabauroud dextrose agar (SDA) plates and grown for ˜24 hr at 35° C. The inoculum was prepared by transferring colonies from the plate to phosphate buffered saline (PBS) and the concentration adjusted to 10^6 CFU/mL with the aid of a spectrophotometer. The stock was diluted 1:9 to prepare the inoculum. Prior to each run the concentration was verified using the dilution plate count method.
The female CD-1 mice used in this study were obtained from Charles River Laboratories, Portage, MI. The animals were approximately seven-weeks-old at the start of the study and weighed about 16-26 g.
In one approach, mice were made neutropenic with IP injections of cyclophosphamide (150 mg/kg in 10 mL/kg) at 4 and 1 day before inoculation. Each animal was inoculated with the appropriate concentration by injecting 0.1 mL of inoculum into a tail vein. The test compounds were administered IP at 2 hr after infection.
The kidneys were collected from four mice in control group 1 (untreated) at 2 hr after infection, and from the remaining mice in the study at 24 hr after infection. Kidneys were removed aseptically from each mouse and were combined in a sterile tube. An aliquot (2 mL) of sterile PBS was added to each tube and the contents homogenized with a tissue homogenizer (Polytron 3100). Serial dilutions of the tissue homogenates were conducted and 0.1 mL aliquots were spread on SDA plates and the plates incubated at 35° C. overnight. The CFU/kidneys were determined from colony counts. Data were analyzed using one-way ANOVA with the Tukey-Kramer Multiple Comparisons Test (GraphPad InStat version 3.06, GraphPad Software, San Diego, Calif.).
Treatments were administered at 2 hr after infection with 2.1×10^5 CFU/mL of the organism. Data are the means of four mice.
Treatments were administered at 2 hr after infection with 6.4×10^5 CFU/mL of the organism. Data are the means of four mice.
Treatments were administered at 2 hr after infection with 3.8×10^5 CFU/mL of the organism. Data are the means of four mice.
Treatments were administered at 2 hr after infection with 3.8×10^5 CFU/rnL of the organism. Data are the means of four mice.

[2] = system: C. albicans 104 ATCC 90028; experiment: MIC by broth microdilution against C. albicans; assay type: cell-based
Experimental: as §1, §2, §3, §4, §5, §6

[3] = First run, 1 mg/kg IP 2 hr after infection
[4] = First run, 1 mg/kg IP 2 hr after infection, neutropenic mice
[5] = Second run, 1 mg/kg IP 2 hr after infection
[6] = Third run, 0.5 mg/kg IP 2 hr after infection
[7] = Third run, 1.5 mg/kg IP 2 hr after infection
[8] = Third run, 4.5 mg/kg IP 2 hr after infection
[9] = Candida albicans, ATCC90028, 48 h, 0% mouse serum
[10] = Fourth run, 0.5 mg/kg IP 2 hr after infection
[11] = Fourth run, 1.5 mg/kg IP 2 hr after infection
[12] = Fourth run, 4.5 mg/kg IP 2 hr after infection

`CCCCCOc1ccc(-c2ccc(-c3ccc(C(=O)N[C@H]4C[C@@H](O)[C@@H](O)NC(=O)[C@@H]5[C@@H](O)[C@@H](C)CN5C(=O)[C@H]([C@@H](C)O)NC(=O)[C@H]([C@H](O)[C@@H](O)c5ccc(O)cc5)NC(=O)[C@@H]5C[C@@H](O)CN5C(=O)[C@H]([C@@H](C)O)NC4=O)cc3)cc2)cc1` [Anidulafungin, anidulafungin, reference compound] ({pTerphenylCO(4''-OnC5H11)}-[Orn(4R-OH,5R-OH)]T[Hyp][hTyr(3S-OH,4S-OH)]T[Pro(3S-OH,4S-Me)]; lactam 1-C) showed an MIC (A. flavus 626 ATCC 64025; Aspergillus flavus, ATCC64025, 48 h, 0% mouse serum) of under 0.015 µg/mL, an MIC (A. flavus 626 ATCC 64025; Aspergillus flavus, ATCC64025, 48 h, 50% mouse serum) of 0.03 µg/mL (≈ 0.0263 µM) and an MIC ([1]; Lodderomyces parapsilosis, ATCC90018, 48 h, 0% mouse serum) of 2 µg/mL (≈ 1.75 µM). For the same molecule, the MIC ([1]; Lodderomyces parapsilosis, ATCC90018, 48 h, 50% mouse serum) was over 16 µg/mL, the “Difference from 24-hr control” value (C. albicans R303; [3]) was −1.68*** log10 CFU/kidneys and the “Mean log10 CFU/kidneys (±SD)” value (C. albicans R303; [4]) was 3.09 ± 0.61 log10 CFU/kidneys. For the same molecule, the “Difference from 24-hr control” value (C. albicans R303; [5]) was −1.83*** log10 CFU/kidneys, the “Mean log10 CFU/kidneys (±SD)” value (C. albicans R303; [5]) was 3.37 ± 0.72 log10 CFU/kidneys and the “Difference from 24-hr control” value (C. albicans R303; [6]) was −0.47 ns log10 CFU/kidneys. For the same molecule, the “Mean log10 CFU/kidneys (±SEM)” value (C. albicans R303; [6]) was 4.41 ± 0.12 log10 CFU/kidneys, the “Difference from 24-hr control” value (C. albicans R303; [7]) was −2.11*** log10 CFU/kidneys and the “Mean log10 CFU/kidneys (±SEM)” value (C. albicans R303; [7]) was 2.77 ± 0.20 log10 CFU/kidneys. The “Difference from 24-hr control” value (C. albicans R303; [8]) was −3.78*** log10 CFU/kidneys, the “Mean log10 CFU/kidneys (±SEM)” value (C. albicans R303; [8]) was 1.10 ± 0.38 log10 CFU/kidneys and the MIC [2, 9] was 0.03 µg/mL (≈ 0.0263 µM). It also gave an MIC ([2]; Candida albicans, ATCC90028, 48 h, 50% mouse serum) of 0.06 µg/mL (≈ 0.0526 µM).
`CC[C@H](C)C[C@H](C)CCCCCCCCC(=O)N[C@H]1C[C@@H](O)[C@@H](NCCN)NC(=O)[C@@H]2[C@@H](O)CCN2C(=O)[C@H]([C@H](O)CCN)NC(=O)[C@H]([C@H](O)[C@@H](O)c2ccc(O)cc2)NC(=O)[C@@H]2C[C@@H](O)CN2C(=O)[C@H]([C@@H](C)O)NC1=O` [Caspofungin, caspofungin, reference compound] showed an MIC (A. flavus 626 ATCC 64025; Aspergillus flavus, ATCC64025, 0% mouse serum, 48 hr, read-out: MIC) of 0.06 µg/mL (≈ 0.0549 µM), an MIC ([1]; Lodderomyces parapsilosis, ATCC90018, 48 h, 0% mouse serum, read-out: MIC) of 0.5 µg/mL (≈ 0.457 µM) and an MIC ([1]; Lodderomyces parapsilosis, ATCC90018, 48 h, 50% mouse serum, read-out: MIC) of 2 µg/mL (≈ 1.83 µM). For the same molecule, the “Difference from 24-hr control” value (C. albicans R303; [3]) was −3.14*** log10 CFU/kidneys, the “Mean log10 CFU/kidneys (±SD)” value (C. albicans R303; [4]) was 1.63 ± 0.29 log10 CFU/kidneys and the “Difference from 24-h control” value (C. albicans R303; [10]) was −4.88*** log10 CFU/kidneys. The “Mean log10 CFU/kidneys (±SEM)” value (C. albicans R303; [10]) was 0.33 ± 0.33 log10 CFU/kidneys, the “Difference from 24-h control” value (C. albicans R303; [11]) was −4.48*** log10 CFU/kidneys and the “Mean log10 CFU/kidneys (±SEM)” value (C. albicans R303; [11]) was 0.73 ± 0.42 log10 CFU/kidneys. For the same molecule, the “Difference from 24-h control” value (C. albicans R303; [12]) was −5.20*** log10 CFU/kidneys, the “Mean log10 CFU/kidneys (±SEM)” value (C. albicans R303; [12]) was 0.00 ± 0.00 log10 CFU/kidneys and the “Difference from 24-hr control” value (C. albicans R303; [5]) was −3.59*** log10 CFU/kidneys. The “Mean log10 CFU/kidneys (±SD)” value (C. albicans R303; [5]) was 1.61 ± 0.23 log10 CFU/kidneys, the MIC [2, 9] was 0.125 µg/mL (≈ 0.114 µM) and the MIC ([2]; Candida albicans, ATCC90028, 50% mouse serum, 48 hr, read-out: MIC) was 0.06 µg/mL (≈ 0.0549 µM).
Work on `CCC(C)CC(C)CCCCCCCCC(=O)NC1CC(O)C(NCCNC(=O)OCCOC)NC(=O)C2C(O)CCN2C(=O)C(C(O)CCN)NC(=O)C(C(O)C(O)c2ccc(O)cc2)NC(=O)C2CC(O)CN2C(=O)C(C(C)O)NC1=O` (stereo not drawn) [Compound 1] yielded an MIC (A. flavus 626 ATCC 64025; 0% mouse serum, 48 hr) of 0.125 µg/mL (≈ 0.105 µM), an MIC (A. flavus 626 ATCC 64025; 50% mouse serum, 48 hr) of 0.5 µg/mL (≈ 0.418 µM) and an MIC ([1]; 0% mouse serum, 48 hr) of 2 µg/mL (≈ 1.67 µM). For the same molecule, the MIC ([1]; 50% mouse serum, 48 hr) was over 16 µg/mL, the “Difference from 24-hr control” value (C. albicans R303; [3]) was −0.13 ns log10 CFU/kidneys and the “Mean log10 CFU/kidneys (±SD)” value (C. albicans R303; [4]) was 4.65 ± 0.26 log10 CFU/kidneys. For the same molecule, the “Difference from 24-hr control” value (C. albicans R303; First run, 5 mg/kg IP 2 hr after infection) was −2.87*** log10 CFU/kidneys, the “Mean log10 CFU/kidneys (±SD)” value (C. albicans R303; First run, 5 mg/kg IP 2 hr after infection, neutropenic mice) was 1.90 ± 0.21 log10 CFU/kidneys and the “Reduction of yeast density in kidneys” value (C. albicans R303; First run, 5 mg/kg dose, versus 24-hr infected control) was 2.87 logs. For the same molecule, the MIC ([2]; 0% mouse serum, 48 hr) was 0.5 µg/mL (≈ 0.418 µM) and the MIC ([2]; 50% mouse serum, 48 hr) was 1 µg/mL (≈ 0.837 µM).
